Patent US10947188B2, “Small molecule ferroptosis inducers” (THE TRUSTEES OF COLUMBIA UNIVERSITY IN THE CITY OF NEW YORK, priority 2016, dated 2021)

Test system: HT-1080
Assay: Modulatory profiling: Alamar Blue viability, lethal compound cotreated with death modulator (EC50, AUC); on AUC HT.BHA: reference of the scale not given here; on AUC HT.EGTA: reference of the scale not given here
Format: cell-based
Set-up: AUC, modulator HT.3MA / AUC, modulator HT.ALLN / AUC HT.ATA / AUC HT.ActD / AUC HT.BHA / AUC HT.BHT / AUC HT.BocD / AUC HT.CHX / AUC HT.Co2+ / AUC HT.DPQ / AUC HT.EGTA / AUC HT.Lmim / AUC HT.NAD+ / AUC HT.Nec-1 / AUC HT.SP600125 / AUC HT.TLCK / AUC HT.U0126: unit not given beside the values
Conditions: for AUC HT.ATA: HT-1080, modulator ATA; for AUC HT.ActD: HT-1080, modulator ActD; for AUC HT.BHA: HT-1080, modulator BHA; for AUC HT.BHT: HT-1080, modulator BHT; for AUC HT.BocD: HT-1080, modulator BocD; for AUC HT.CHX: HT-1080, modulator CHX; for AUC HT.Co2+: HT-1080, modulator Co2+; for AUC HT.CspA: HT-1080, modulator CspA; for AUC HT.DPQ: HT-1080, modulator DPQ; for AUC HT.EGTA: HT-1080, modulator EGTA; for AUC HT.Gd3+: HT-1080, modulator Gd3+; for AUC HT.LNAME: HT-1080, modulator LNAME; for AUC HT.Lmim: HT-1080, modulator Lmim; for AUC HT.NAD+: HT-1080, modulator NAD+; for AUC HT.NMMA: HT-1080, modulator NMMA; for HT.atoc (AUC) / HT.bCarotene (AUC) / HT.deferox (AUC) / HT.digoxin (AUC) / HT.trolox (AUC) / HT.zVAD (AUC) / EC50: HT-1080; for HT.atoc (AUC): modulator atoc; for HT.bCarotene (AUC): modulator bCarotene; for HT.deferox (AUC): modulator deferox; for HT.digoxin (AUC): modulator digoxin; for HT.trolox (AUC): modulator trolox; for HT.zVAD (AUC): modulator zVAD; for AUC, modulator HT.3MA / AUC, modulator HT.ALLN: HT-1080 cells, modulatory profile value (AUC); for AUC, modulator HT.3MA: lethal compound cotreated with modulator 3MA; for AUC, modulator HT.ALLN: lethal compound cotreated with modulator ALLN; for effect of ferroptosis inhibitors (iron chelators and lipophilic antioxidants) on lethality in modulatory profiling: HT-1080 and BJeLR; for EC50: Homo sapiens, HT-1080, 48 h, 48 h
[1] = cotreated with antioxidant Atoc
[2] = cotreated with antioxidant Trolox
[3] = cotreated with iron-chelator Deferoxamine
[4] = cotreated with iron-chelator Lmim

Row | Structure (SMILES) | AUC HT.ATA | AUC HT.ActD | AUC HT.BHA | AUC HT.BHT | AUC HT.BocD | AUC HT.CHX | AUC HT.Co2+ | AUC HT.CspA | AUC HT.DPQ | AUC HT.EGTA | AUC HT.Gd3+ | AUC HT.LNAME | AUC HT.Lmim | AUC HT.NAD+ | AUC HT.NMMA | HT.atoc (AUC) | HT.bCarotene (AUC) | HT.deferox (AUC) | HT.digoxin (AUC) | HT.trolox (AUC) | further results
1 | CC1=CC(C)(C)Nc2ccc(OC(=O)c3cccnc3)cc21 [CIL47] | 0.07043 | 0.01588 | −0.04478 | −0.1469 | −0.009617 | 0.007874 | −0.2381 | 0.01761 | −0.02038 | 0.001051 | −0.02263 | −0.01288 | −0.04173 | −0.02784 | −0.01195 | 0.04666 | −0.001832 | 0.01074 | 0.03489 | −0.03828 | HT.zVAD (AUC): −0.005894; AUC, modulator HT.3MA: 0.07294; AUC, modulator HT.ALLN: 0.2227
2 | COc1ccc(-n2nnnc2S(=O)(=O)CC(=O)N2CCCCC2)cc1 [CIL48] | 0.04684 | 0.01673 | −0.06966 | −0.1547 | −0.03823 | 0.0148 | 0.0307 | 0.002689 | −0.0003728 | 0.01715 | −0.003556 | −0.04087 | −0.01757 | −0.05465 | −0.01902 | 0.09021 | −0.00845 | 0.1268 | −0.01513 | −0.02612 | HT.zVAD (AUC): −0.005053; AUC, modulator HT.3MA: 0.0854; AUC, modulator HT.ALLN: 0.1611
3 | CCCCS(=O)(=O)/C=C\C=C/S(=O)(=O)CCCC [CIL49] | 0.04768 | −0.01874 | −0.01433 | −0.08297 | −0.0224 | −0.009484 | 0.008808 | 0.04471 | −0.02418 | 0.02252 | 0.000907 | 0.01289 | −0.03685 | −0.01413 | 0.000429 | 0.02137 | −0.02606 | 0.07453 | 0.001647 | −0.01523 | HT.zVAD (AUC): 0.009879; AUC, modulator HT.3MA: 0.05435; AUC, modulator HT.ALLN: 0.0662
4 | O=C(CCl)N(c1ccccc1)c1c[nH]c2ccccc12 [CIL69] | −0.005358 | −0.004265 | 0.2489 | 0.2227 | −0.03457 | 0.03395 | 0.07132 | 0.009848 | −0.006588 | 0.06032 | −0.01446 | −0.04538 | 0.1792 | 0.03637 | −0.04048 | 0.3456 | −0.0167 | 0.3005 | −0.0261 | 0.2631 | HT.zVAD (AUC): −0.0004734; effect of ferroptosis inhibitors (iron chelators and lipophilic antioxidants) on lethality in modulatory profiling: suppression by canonical ferroptosis inhibitors; EC50 (DMSO): 0.551 µM; EC50 (cotreated with MEK inh U0126): 5.75 µM; EC50 [1]: 6.13 µM; EC50 (cotreated with antioxidant BHA): 4.79 µM; EC50 (cotreated with antioxidant BHT): 3.28 µM; EC50 [2]: 4.26 µM; EC50 [3]: 9.29 µM; EC50 [4]: 4.79 µM
5 | O=C(CCl)N(c1ccc(Cl)cc1)c1c[nH]c2ccccc12 [CIL75] | −0.01715 | 0.01892 | 0.3131 | 0.2828 | −0.01219 | 0.0402 | 0.1217 | −0.009674 | 0.01971 | −0.007018 | −0.02285 | −0.01737 | 0.2499 | −0.002594 | −0.02794 | 0.3816 | −0.01871 | 0.4009 | −0.037 | 0.3452 | HT.zVAD (AUC): 0.0001191; effect of ferroptosis inhibitors (iron chelators and lipophilic antioxidants) on lethality in modulatory profiling: suppression by canonical ferroptosis inhibitors; EC50 (DMSO): 0.144 µM; EC50 (cotreated with MEK inh U0126): 2.53 µM; EC50 [1]: 2.94 µM; EC50 (cotreated with antioxidant BHA): 2.75 µM; EC50 (cotreated with antioxidant BHT): 1.72 µM; EC50 [2]: 2.56 µM; EC50 [3]: 4.82 µM; EC50 [4]: 2.47 µM
6 | COC(=O)[C@@H]1Cc2c([nH]c3ccccc23)C(C)(C)N1C(=O)CCl [CIL79] | −0.05302 | −0.04021 | 0.3909 | 0.3644 | −0.002385 | 0.02794 | 0.2948 | −0.03389 | 0.04764 | 0.02262 | −0.02579 | 0.01224 | 0.4052 | −0.004292 | 0.003194 | 0.4488 | 0.005675 | 0.5494 | −0.0705 | 0.4225 | HT.zVAD (AUC): 0.003682; effect of ferroptosis inhibitors (iron chelators and lipophilic antioxidants) on lethality in modulatory profiling: suppression by canonical ferroptosis inhibitors; EC50 (DMSO): 0.271 µM; EC50 (cotreated with MEK inh U0126): 14.3 µM; EC50 [1]: 11.7 µM; EC50 (cotreated with antioxidant BHA): 10.1 µM; EC50 (cotreated with antioxidant BHT): 6.3 µM; EC50 [2]: 10.2 µM; EC50 [3]: 32.4 µM; EC50 [4]: 12 µM
